# Measured values: paper PMC8671953 (Nanotheranostics, 2022)
# Key:
# [1] = system: GCPII; design: method as in PMID 23169655, PMID 26826008; details: ref [8], [9]; cited from earlier work
# [2] = system: EAE mice; details: cited from earlier work
# [3] = cited from earlier work
# [4] = biological target: human recombinant GCPII enzyme (Homo sapiens, UniProt Q04609); test: GCPII activity assay (IC50), NAA-[3H]-G hydrolysis; type: biochemical; details: human recombinant GCPII 40 pM, NAA-[3H]-G 30 nM, 37 °C, 20 min
# Chain of human recombinant GCPII enzyme (Q04609 whole entry): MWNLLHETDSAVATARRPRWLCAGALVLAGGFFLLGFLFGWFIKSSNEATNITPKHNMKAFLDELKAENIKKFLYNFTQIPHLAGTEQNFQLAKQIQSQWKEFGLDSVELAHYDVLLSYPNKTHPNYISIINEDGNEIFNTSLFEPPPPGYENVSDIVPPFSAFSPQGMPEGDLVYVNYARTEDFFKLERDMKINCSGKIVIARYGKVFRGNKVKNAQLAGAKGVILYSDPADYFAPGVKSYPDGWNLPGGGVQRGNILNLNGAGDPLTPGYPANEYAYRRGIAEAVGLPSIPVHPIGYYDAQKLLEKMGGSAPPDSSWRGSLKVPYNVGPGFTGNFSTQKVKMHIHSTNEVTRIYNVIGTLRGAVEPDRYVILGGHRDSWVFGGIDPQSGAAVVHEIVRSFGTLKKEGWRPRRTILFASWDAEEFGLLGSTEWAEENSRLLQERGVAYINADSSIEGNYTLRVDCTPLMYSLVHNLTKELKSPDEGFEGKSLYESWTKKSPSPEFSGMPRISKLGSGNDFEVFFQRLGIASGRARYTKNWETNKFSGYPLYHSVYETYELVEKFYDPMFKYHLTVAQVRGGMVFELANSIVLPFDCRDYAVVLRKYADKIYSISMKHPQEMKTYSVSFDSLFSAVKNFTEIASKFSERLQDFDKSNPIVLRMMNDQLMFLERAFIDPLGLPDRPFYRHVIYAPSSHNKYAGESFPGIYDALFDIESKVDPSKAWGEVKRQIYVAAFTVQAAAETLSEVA
Structure (SMILES),IC50 [1] [nM],"effect on EAE disease score ([2]; free 2-PMPA treatment, ref [8], [9])","minimal dose required for positive behavioral effects and alterations in brain NAAG levels ([2]; previous dose response studies, ref [9]) [mg/kg]","clearance from circulation ([3]; free drug, ref [9])",brain penetration (AUCbrain/AUCplasma) ([3]; ref [37]),oral bioavailability (F) ([3]; ref [37]) [%],IC50 [4] [nM]
"O=C(O)CCC(CP(=O)(O)O)C(=O)O (stereo not shown) [2-PMPA, 2-(phosphonomethyl)-pentanedioic acid]",[…],no effect on EAE disease score,[…],cleared from circulation within six hours,< 0.02,< 2,
[N-]=[N+]=NCCOCCOCCOCCOCCOCCOCCOCCOCCOCCOCCOC(=O)CCC(CP(=O)(O)O)C(=O)O (stereo not shown) [2-PMPA-PEG-azide],,,,,,,1.6
